{"source": "paper PMC5640650", "about": "“NatD promotes lung cancer progression by preventing histone H4 serine phosphorylation to activate Slug expression” (Nature Communications, 2017)", "system": "CK2α", "assay": "CK2α mRNA and protein expression, H1299 cells", "format": "cell-based, human", "conditions": "vs Scr", "description": "Cellular proteins were extracted by RIPA lysis buffer at high salt concentration (420 mM NaCl), and western blot analysis was performed in accordance with standard protocols. Scans of enhanced chemiluminescence (ECL) films showing uncropped blots are presented in Supplementary Fig. 10. […]\nTotal RNA from tissue samples and cultured cells was extracted using TRIzol reagent (Invitrogen). cDNAs were synthesized with a HiScript 1st Strand cDNA Synthesis Kit (Vazyme Biotech, China). Quantitative RT-PCR was performed using a FastStart Universal SYBR Green Master (Roche) according to the manufacturer’s instructions in a Rotor-Gene 6000 (Corbett Research) in a final volume of 20 μl. […]\nSupplementary Figure 8. […] (a) Quantitative real-time PCR analysis of NatD and CK2α mRNA levels in scrambled and NatD-KD H1299 cells normalized to GAPDH. […]", "data": [{"substance": "NatD-KD2: Human NatD shRNA KD2: 5′-GGTTGAATGTCTCCATTGA-3′, lentiviral (shRNA lentiviral)", "values": [{"measurement": "levels of CK2α mRNA or protein", "value": "no increase"}]}]}
